{"source": "patent US20220411448A1", "about": "“CHROMENE-4-ONE DERIVATIVES AS BRAIN-DERIVED NEUROTROPHIC FACTOR (BDNF) MIMETICS” (FLORATEK PHARMA AG, priority 2019, published 2022)", "key": {"[1]": {"test_system": "organotypic hippocampal brain slices with IAA lesion", "experiment": "Organotypic brain slices, iodoacetic acid injury: cell survival (MTT)", "assay_type": "cell-based, mouse", "conditions": "SND118 10 and 30 μM; SND124 30 μM; 7,8 DHF 10 μm; IAA 250 μM for 110 min", "procedure": "(§1) Preparation of the organotypic brain slices were performed by decapitation of the P9/P10 mouse pups, removing skin and skull and immersing brains in slicing medium (Opti-MEM 1, […]). Brains were hemisected and hippocampi were isolated. Hippocampi were placed on the cutting disc of a McIlwain Tissue Chopper. […] hippocampal slices were chopped transversely. A number of 4 slices per hippocampus were placed on porous (0.4 μM) transparent membrane inserts (Millipore) and incubated for 1 h on ice in HBSS containing 10 mM glucose. Afterwards inserts were transferred to fresh 24-well plates containing 250-300 μl culture medium (50% MEM/EBSS, 25% horse serum, 25% CMF-HBSS, 25 mM glucose, 0.5% pen/strep). Slices were maintained at 37° C. and 5% CO2.\n(§2) On DV15, brain slices were pretreated with SND derivatives test compounds and the reference 7,8DHF at various concentrations (between […]) for 30 min, followed by the addition of iodoacetic acid (IAA) at 250 μM for 110 min, when cell survival, MMP and toxicity were measured.\nCell survival was measured by the MTT assay. For the determination of mitochondrial membrane potential, treated organotypic brain slices were loaded with the mitochondrial fluorescent dye, tetramethylrhodamine methyl ester (TMRM) at a final concentration of 100 nM in PBS and incubated for 45 min at 37° C. The TMRM containing solution was aspirated and slices were transferred into new well plates containing the appropriate amount of PBS. Fluorescence was measured with a plate-reader (Cytation 5) using wavelengths of excitation and emission of 548 and 574 nm, respectively (area scan). Values were calculated as percent of control values (vehicle control). Toxicity of the treatment was measured by LDH. No toxicity was observed."}, "TrkB receptor": {"test_system": "TrkB receptor", "experiment": "Activation of TrkB receptor: phosphorylation in cortical neurons (WES capillary immunoassay)", "assay_type": "cell-based, mouse", "procedure": "On the day of preparation (DIV1) cortical neurons were seeded on poly-D-lysine pre-coated 6-well plates at a density of 1.25*10^6 cells per well and cultured at 37° C.; 95% humidity and 5% CO2 until […] with a half medium exchange on DIV4-6. On DIV10 cells are treated with test item TI (SND118) and control Rh (7,8DHF) at different concentrations for 15 min. The experiment was carried out with n=6 technical replicates per condition, vehicle treated cells served as control. Cells were lysed in 150 μL cold RIPA buffer [50 mM Tris pH 7.4, 1% Nonidet P40, 0.25% Na-deoxy-cholate, 150 mM NaCl, 1 mM EDTA supplemented with freshly added 1 μM NaF, 0.2 mM Na-ortho-vanadate, 80 μM Glycerophosphate, protease (Calbiochem) and phosphatase (Sigma) inhibitor cocktail.\nPhosphorylation of the TrkB receptor was detected using the following rabbit anti-Tyr specific antibodies: anti-TrkB Y515, Y706/707 and Y816 and compared with total TrkB detected with anti-TrkB antibody (Abcam). Antibody dilutions and protein amounts were optimized for signal specificity.\nAutomated separation and immunostaining of total and phospho TrkB was carried out using a capillary-based immunoassay, WES™ (Proteinsimple®). Samples were applied to a 25 capillary cartridge with a 2 to 440 kDa matrix, at an optimized total protein concentration. Sample loading, separation, immunoprobing, washing, detection and quantitative data analysis were performed automatically by WES™ Western system (Compass software V 4.0.0). The areas under the curve were used for the analysis and the phosphorylated versus vehicle or total TrkB signal ratio was calculated and used for statistics."}, "[2]": {"test_system": "cortical neurons treated with glutamate", "experiment": "Neuron protection from glutamate injury: mitochondrial membrane potential (rhodamine 123)", "assay_type": "cell-based, rat", "procedure": "(§3) Cortices were harvested from E19 rat embryos and dissociated enzymatically and mechanically. Dissociated cells were plated in poly-D-lysine coated imaging plates (384 wells), in 70 μL of neuronal growth medium (Neurocult Neuronal Basal medium+SM1 neuronal supplements+L-glutamine+HEPES). Cells were incubated at 37° C., 5% CO2 and half of the medium was changed twice per week.\nFor mitochondrial membrane potential measurement (MMP) neurons were cultured 10 to 14 days in vitro, the growth medium was discarded and wells were washed with 50 μL of extracellular saline. Saline was removed and replaced by 25 μL of staining solution (rhodamine 123 in a saline solution containing 1.5 mM Calcium, pyruvate and verapamil). The cells were incubated 30 min at 37° C./5% CO2. 5 μL of a staining solution with or without the test substances at 6× concentrated was added in the wells. […]\nGlutamate was prepared 6× concentrated (6 μL on top of the 30 μL) in saline or saline+test compounds 1× concentrated depending on the conditions. […] Basal MMP levels were measured for 1 minute before automated addition of the compounds or controls while recording. MMP signals were further recorded for 30 minutes to 1 hour. […]\nRhodamine 123 is a cationic fluorescent dye that is used to specifically label respiring mitochondria. […] Loss of potential will result in loss of the dye and, therefore, the fluorescence intensity."}, "MAO-A": {"target": "T1, MAO-A (Homo sapiens, UniProt P21397)", "T1 construct": "purchased BioVision K796", "T1 sequence (P21397 1-527)": "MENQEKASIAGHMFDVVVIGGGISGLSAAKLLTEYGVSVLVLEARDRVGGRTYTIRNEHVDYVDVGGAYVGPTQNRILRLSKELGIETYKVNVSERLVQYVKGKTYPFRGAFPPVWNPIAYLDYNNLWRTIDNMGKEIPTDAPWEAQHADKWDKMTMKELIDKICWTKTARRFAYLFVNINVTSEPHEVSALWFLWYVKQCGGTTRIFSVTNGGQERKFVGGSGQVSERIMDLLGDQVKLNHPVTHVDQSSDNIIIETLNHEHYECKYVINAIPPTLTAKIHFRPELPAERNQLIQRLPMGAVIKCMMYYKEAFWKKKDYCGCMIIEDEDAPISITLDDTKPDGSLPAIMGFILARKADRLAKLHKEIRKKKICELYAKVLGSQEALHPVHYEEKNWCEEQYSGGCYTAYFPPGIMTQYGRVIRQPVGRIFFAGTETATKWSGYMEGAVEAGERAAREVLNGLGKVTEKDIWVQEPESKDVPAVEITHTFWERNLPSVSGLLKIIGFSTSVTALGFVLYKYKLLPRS", "experiment": "In vitro inhibition of monoamine oxidase type A (BioVision MAO-A inhibitor screening kit)", "assay_type": "biochemical", "conditions": "read-out: IC50 in vitro inhibition of MOA-A enzyme", "procedure": "BioVision's MAO-A inhibitor screening kit (BioVision Cat no. K796) was used to assess inhibitory effects of the test items (TIs) on MAO-A in a fluorescent assay.\nThe assay was carried out according to the provided protocol: TIs were diluted to 10× with MAO-A Assay Buffer before use. 10 μl of test inhibitor (S), working solution of Inhibitor Control (IC; Clorgyline, 1 μM final in the well) and MAO-A Assay Buffer (Enzyme Control; EC) were added into assigned wells. 50 μl of diluted MAO-A Enzyme Solution was added to each well and incubated for 10 min at RT. To check the possible inhibitory effect of TIs on Developer, one well with TI was prepared parallel and incubated with 50 μl of a H2O2 mix instead of the MAO-A Enzyme Solution.\nThe reaction was started by adding 40 μl of the prepared substrate mix. Measurement of the fluorescence (Ex/Em=535/587 nm) was done kinetically at 25° C. for 10-30 min. Two time points (t1 and t2) in the linear range of the plot were chosen for further calculations (2 min and 6 min). The slope for all Sample Compounds [S], Enzyme Control [EC], Vehicle Control [VC] and Background Control [BC] were calculated by dividing the net ARFU (RFU2-RFU1) values by the time Δt (t2−t1). The slope obtained for the Background Control reaction was subtracted from the [S], [EC] and [VC] values. […]"}, "[3]": {"test_system": "organotypic hippocampal brain slices with IAA lesion", "experiment": "Organotypic brain slices, iodoacetic acid injury: mitochondrial membrane potential (TMRM)", "assay_type": "cell-based, mouse", "conditions": "SND118 10 and 30 μM; SND124 30 μM; IAA 250 μM for 110 min", "procedure": "as §1, §2\nCell survival was measured by the MTT assay. […] Fluorescence was measured with a plate-reader (Cytation 5) using wavelengths of excitation and emission of 548 and 574 nm, respectively (area scan). Values were calculated as percent of control values (vehicle control). Toxicity of the treatment was measured by LDH. […]"}, "[4]": {"test_system": "cortical neurons treated with glutamate", "experiment": "Neuron protection from glutamate injury: intracellular calcium measurement", "assay_type": "cell-based, rat", "procedure": "as §3\nFor Calcium measurement, the cells were cultured for 10 to 14 days in vitro, the growth medium was discarded and replaced by 25 μL of a calcium probe in a saline solution (containing 1.5 mM Calcium) for 30 min at 37° C./5% CO2. 5 μL of calcium probe in a saline solution with or without the test substances at 6× concentrated was added in the wells for the pre-treatment step. The wells were further incubated 30 min at 37° C./5% CO2\nFor calcium measurement, at the end of the pre-treatment, glutamate was prepared at 6× concentrated (6 μL on top of the 30 μL). The final vehicle concentration in all conditions was adjusted. Basal calcium levels was measured for 1 minute before automated addition of the compounds or controls while recording. Intracellular calcium signals was further recorded for 5 to 10 minutes at a sampling rate of around 1 point per second. Each experimental condition was tested in quadruplicate wells."}, "[5]": {"test_system": "primary cultures of cerebral cortical astrocytes", "conditions": "glutamate 200 μM, positive control; cited from earlier work"}}, "note": "pIC50: −log10 of the molar value.", "data": [{"compound": "O=c1cc(-c2ccccc2)oc2c(O)c(O)ccc12", "note": "[7,8DHF, 7,8-dihydroxyflavone, reference compound]", "values": [{"measurement": "cell survival upon IAA lesion (MTT)", "setting": "[1]", "result": "no effect"}, {"measurement": "phosphorylation of the TrkB receptor at sites Tyr 515 and Tyr 816", "setting": "TrkB receptor; 1 and 2 μM", "result": "induced a lower phosphorylation, which did not reach statistical significance"}, {"measurement": "phosphorylation of TrkB at Tyr residue 706/707 versus the vehicle", "setting": "TrkB receptor; SND118 2 μM", "result": "neither the derivative nor the 7,8DHF reached statistical significance"}]}, {"compound": "C[C@]12N[C@H](Cc3ccccc31)c1ccccc12", "note": "[MK801, [(+)-5-methyl-10,11-dihydroxy-5H-dibenzo(a,d)cyclohepten-5,10-imine], reference compound]", "values": [{"measurement": "mitochondria potential increased by glutamate (rhodamine 123)", "setting": "[2]; MK801 10 μM, control compound", "result": "restored"}]}, {"compound": "CCNC(=O)Oc1ccc2c(=O)cc(-c3ccc(CCCC[P+](c4ccccc4)(c4ccccc4)c4ccccc4)cc3)oc2c1OC(=O)NCC.[Br-]", "note": "[SND124, 4-[4-[7,8-Bis(ethylcarbamoyloxy)-4-oxo-chromen-2-yl]phenyl]-butyltriphenylphosphonium bromide]", "values": [{"measurement": "pIC50", "setting": "MAO-A", "result": 4.70}, {"measurement": "mitochondria function (MMP, TMRM) after IAA lesion", "setting": "[3]", "result": "rescued mitochondria function"}, {"measurement": "cell survival upon IAA lesion (MTT)", "setting": "[1]", "result": "statistically increase cell survival"}]}, {"compound": "COc1c(O)ccc2c(=O)cc(-c3ccc(CCCC[P+](c4ccccc4)(c4ccccc4)c4ccccc4)cc3)oc12.[Br-]", "note": "[SND135, (4-(4-(7-hydroxy-8-methoxy-4-oxo-4H-chromen-2-yl)phenyl)butyl)triphenylphosphonium bromide]", "values": [{"measurement": "calcium release induced by glutamate", "setting": "[4]; SND135 30 μM, glutamate 30 μM", "result": "decreased"}, {"measurement": "calcium release induced by glutamate (maximum peak of calcium kinetic)", "setting": "[4]; SND135 10 and 30 μM, glutamate 10 and 30 μM", "result": "decreases calcium release"}, {"measurement": "mitochondria potential induced by glutamate (rhodamine 123)", "setting": "[2]; SND135 between 3 and 30 μM, glutamate between 10 and 100 μM", "result": "decreases mitochondria potential"}]}, {"compound": "N[C@@H](CCC(=O)O)C(=O)O", "note": "[glutamate]", "values": [{"measurement": "increase of glucose entry", "setting": "[5]", "result": "20 to 30", "unit": "%"}]}]}
